Assay results published in US7247714B2, “Protection against oxidative stress and inflammation by a cytoprotective response element” (Atherogenics, Inc., priority 2001, dated 2007).
Entries after “also recorded” stand apart in the source; their conditions may differ.

Test system: p3xCPRE/Luc
Assay: Activation of p3xCPRE/Luc by small molecular weight organic compounds (Table 6)
Format: cell-based, human
Conditions: luciferase activity 16 hours after exposure
Description: In the in vitro assay system described above, a stable HeLa cell line was generated that contains a stably-integrated copy of the CPRE-Luc gene.
HMECs and HeLa cells were transiently transfected with 1 μg of 3xCPRE-Luc and 0.1 μg of pRL-SV40. One day after transfection, cells were treated with the compounds listed in Table 6 Luciferase activities were determined 16 hours after exposure to the compounds. To generate stable HeLa cell lines that contain a stably-integrated copy of the CPRE-Luc gene, HeLa cells were transfected with p3xCPRE-Luc plus pcDNA-LacZ-Hyg (an expression vector containing the hygromycin drug resistance gene) using SuperFeet transfection reagent. Two days after transfection, cells were cultured in hygromycin (400 μg/ml)-containing selection medium until individual colonies were identified. The colonies were expanded and the presence of CPRE-Luc-containing clones was examined by inducible luciferase activity. […]

| Structure (SMILES) | CPRE Activity: concentration to achieve a two-fold induction of CPRE activity over control [µM] |
| --- | --- |
| COc1cc(OC)c(C(=O)/C=C/c2cc(Br)c(OC)c(OC)c2)cc1OC [F, 1-(3-Bromo-4,5-dimethoxyphenyl)-1-(2,4,5-trimethoxy-phenyl)propenone] | 1 |
| COc1ccc(-c2cccs2)cc1/C=C/C(=O)c1cc(OC)c(OC)c(OC)c1 [H, 3-(2-Methoxy-5-thiophen-2-ylphenyl)-1-(3,4,5-trimethoxy-phenyl)propenone] | 2 |
| COc1ccc(COc2ccc(C(=O)/C=C/c3cc(OC)c(OC)c(OC)c3)cc2OC)cc1 [K] | 2 |
| COc1ccc(/C=C/C(=O)c2cc(C(C)(C)C)c(OC)c(C(C)(C)C)c2)cc1 [Compound C, 1-(3,5-di-tert-butyl-4-methoxyphenyl)-3-(4-methoxyphenyl)-propenone] | 5 |
| COc1ccc(-c2cccs2)cc1/C=C/C(=O)c1ccc(OCc2ccccn2)c(OC)c1 [L, 1-[3-Methoxy-4-(pyridin-2-ylmethoxy)-phenyl]-3-(2-methoxy-5-thiophen-2-yl-phenyl)propenone] | 0.7 |
| COc1cc(OCC(=O)[O-])c(/C=C/C(=O)c2cc(OC)c(OC)c(OC)c2)cc1-c1cc2ccccc2s1.[Na+] [R, Sodium {4-benzo[b]thiophene-2-yl-5-methoxy-2-[3-oxo-3-(3,4,5-trimethoxyphenyl)-propenyl]phenoxy}-acetate] | 14 |
| COc1cc(OC)c(-c2cc3ccccc3s2)cc1/C=C/C(=O)c1cc(OC)c(O)c(OC)c1 [O, 3-(5-Benzo[b]thiophene-2-yl-2,4-dimethoxy-phenyl)-1-(4-hydroxy-3,5-dimethoxyphenyl)-propenone] | 0.7 |
| COc1c(C(C)(C)C)cc(C(=O)/C=C/c2ccccc2)cc1C(C)(C)C [D, 1-(3,5-Di-tert-butyl-4-methoxyphenyl)-3-phenyl-propenone] | 2.5 |
| COc1cc(OC)c(-c2cc3ccccc3s2)cc1/C=C/C(=O)c1ccc(OC)c(OC)c1 [M, 3-(5-Benzo[b]thiophene-2-yl-2,4-dimethoxy-phenyl)-1-(3,4-dimethoxyphenyl)-propenone] | 2.5 |
| COc1cc(OC)c(-c2cc3ccccc3s2)cc1/C=C/C(=O)c1cc(OC)c([O-])c(OC)c1.[Na+] [P, Sodium 4-[3-(5-benzo[b]thiophene-2-yl-2,4-dimethoxy-phenyl)acryloyl]-2,6-dimethoxyphenolate] | 1 |
| CCOc1cc(OCC)c(C(=O)/C=C/c2cc(Br)c(OC)c(OC)c2)cc1OCC [E, 3-(3-Bromo-4,5-dimethoxyphenyl)-1-(2,4,5-triethoxyphenyl)-propenone] | 12.5 |
| COc1cc(/C=C/C(=O)c2ccc(OC)c(OC)c2OC)cc(-c2cccs2)c1OC [Compound G, 3-(3,4-Dimethoxy-5-thiophen-2-ylphenyl)-1-(2,3,4-trimethoxy-phenyl)propenone] | 3 |
| COc1cc(OC)c(-c2cc3ccccc3s2)cc1/C=C/C(=O)c1cc(OC)c(OCC(=O)[O-])c(OC)c1.[Na+] [N, Sodium {4-[3-(5-benzo[b]thiophene-2-yl-2,4-dimethoxy-phenyl)acryloyl]-2,6-dimethoxyphenoxy}-acetate] | 1.4 |
| O=C(/C=C/c1ccccc1)c1ccccc1 [B, 1,3-diphenylpropenone] | 25 |
| COc1cc(/C=C/C(=O)c2ccc(OC)c(OC)c2OC)cc(-c2cc3ccccc3s2)c1OC [Q, 3-(3-Benzo[b]thiophene-2-yl-4,5-dimethoxy-phenyl)-1-(2,3,4-trimethoxy-phenyl)propenone] | 2.5 |
| COc1cc2c(cc1OC)C(=O)/C(=C/c1cc(Br)c(OC)c(OC)c1)CC2 [J, 2-(3-Bromo-4,5-dimethoxy-benzylidene)-6,7-dimethoxy-3,4-dihydro-2H-naphthalen-1-one.] | 3 |
| COc1ccc(C(=O)/C=C/c2ccc(-c3cccs3)cc2)cc1OC [Compound I, 1-(3,4-Dimethoxy-phenyl)-3-(4-thiophen-2-ylphenyl)propenone] | 8 |

Test system: p3xCPRE/Luc
Assay: p3xCPRE/Luc reporter, transient transfection in HMEC cells
Format: cell-based, human
Conditions: t-BHQ 20 μM
Description: (§1) In an effort to determine the utility of the CPRE-Luc reporter construct for the identification of small molecular weight compounds that activate the CPRE, the p3xCPRE/Luc reporter was transiently transfected into both HeLa and endothelial cells (HMECs). […] Similar results were obtained in HeLa cells with both t-BHQ and compound A (FIG. 12b).
(§2) HMECs and HeLa cells were transiently transfected with 1 μg of 3xCPRE-Luc and 0.1 μg of pRL-SV40. One day after transfection, cells were treated with t-BHQ or compound A. Luciferase activities were determined 16 hours after exposure to tBHQ. To generate stable HeLa cell lines that contain a stably-integrated copy of the CPRE-Luc gene, HeLa cells were transfected with p3xCPRE-Luc plus pcDNA-LacZ-Hyg (an expression vector containing the hygromycin drug resistance gene) using SuperFect transfection reagent. Two days after transfection, cells were cultured in hygromycin (400 μg/ml)-containing selection medium until individual colonies were identified. The colonies were expanded and the presence of CPRE-Luc-containing clones was examined by inducible luciferase activity. All experiments are an average of at least three independent determinations for each experimental sample.

| Structure (SMILES) | p3xCPRE/Luc activity |
| --- | --- |
| CC(C)(C)c1cc(O)ccc1O [t-BHQ, reference compound] | induced CPRE-dependent gene expression; also recorded: significantly increased |

Test system: p3xCPRE/Luc
Assay: p3xCPRE/Luc reporter, transient transfection in HeLa cells
Format: cell-based, human
Conditions: t-BHQ 25 μM
Description: HMEC cells (passage 20) and HeLa cells were seeded into 6 well plates and were grown to approximately 60-70% confluency. Cells were transfected with 2 μg (HeLa) or 1 μg (HMEC) each of p3xCPRE/Luc reporter and Nrf-2 expression vector (an expression vector containing the full-length murine Nrf-2 gene under the control of the CMV promoter (Asakura & Karino (1990) Circ Res, 66:1045-1066). Cells were cultured for an additional 48 hours, and luciferase activity was determined (Promega). An average of at least three independent determinations were made for each experimental sample. Results are expressed as ratio of firefly/renilla luciferase.
as §1, §2

| Structure (SMILES) | p3xCPRE/Luc activity |
| --- | --- |
| CC(C)(C)c1cc(O)ccc1O [t-BHQ, reference compound] | significantly increased |

Test system: murine model of allergen-induced peritonitis
Assay: Murine model of allergen-induced peritonitis (Type 1 hypersensitivity), eosinophil recruitment
Format: in vivo, mouse
Conditions: Compound G 50 mg/kg i.v., peritoneal fluid 48 hrs post-challenge
Description: To evaluate the anti-inflammatory potential of compound A, a murine model of Type 1 hypersensitivity was used. In this model mice are sensitized to ovalbumin and subsequently challenged with ovalbumin by intraperitoneal injection. This leads to eosinophil recruitment and accumulation in the peritoneal cavity 24-48 hours after the challenge.
6-8 week old Balb/c mice (weighing 20-30 g) were given subcutaneous injections of ovalbumin in alum (0.4 ml of 100 μg ovalbumin and 3.3 mg of Alum Inject) on days 0 and 7. The mice were challenged on day 14 with an intraperitoneal injection of ovalbumin (10 μg in 0.2 ml saline). The mice were sacrificed and peritoneal lavage fluid collected 48 hours after the challenge. The peritoneal fluid was concentrated and slide smears made using a cytospin centrifuge. Slides were stained with Diff-Quik and differential counts obtained by counting 300 cells. Compound A was administered by intravenous injection, in a vehicle composed of 95% Liposyn and 5% Tween 20, 4 or 1 hour prior to challenge. Compound A was compared to dexamethosone administered orally at a dose of 2.5 mg/kg/d.
In a common allergic inflammation, balb/C mice were divided into two groups: control/vehicle and Compound G treated. They were then sensitized to ovalbumin on days 0 and 7 with a subcutaneous injection of ovalbumin absorbed in aluminum hydroxide. The treated group was dosed i.v. 50 mg/kg in liposyn/tween and vehicle one day prior to challenge. The mice were then challenged with an intraperitoneal injection of ovalbumin on day 14 and sacrificed 48 hrs post-challenge. Peritoneal fluid was collected and spun down onto slides. Slides were stained with DiffQuik and a differential performed.

| Structure (SMILES) | Inhibition of eosinophilia compared with vehicle controls [%] |
| --- | --- |
| COc1cc(/C=C/C(=O)c2ccc(OC)c(OC)c2OC)cc(-c2cccs2)c1OC [Compound G, 3-(3,4-Dimethoxy-5-thiophen-2-ylphenyl)-1-(2,3,4-trimethoxy-phenyl)propenone] | 39 |

Same assay, conditions: Compound G 50 mg/kg/d intravenous

| Structure (SMILES) | Eosinophil levels in peritoneal fluid (percent eosinophils) |
| --- | --- |
| COc1cc(/C=C/C(=O)c2ccc(OC)c(OC)c2OC)cc(-c2cccs2)c1OC [Compound G, 3-(3,4-Dimethoxy-5-thiophen-2-ylphenyl)-1-(2,3,4-trimethoxy-phenyl)propenone] | significantly decreased |
